Measurements as given in PMC11304236, “A Novel Drug Candidate for Sepsis Targeting Heparanase by Inhibiting Cytokine Storm” (Advanced Science, 2024).

Columns and labels:
LPS-induced septic mice [1] = test: LPS-induced sepsis mouse model, survival; format: in vivo; conditions: LPS group 0%
Procedure: For LPS‐induced sepsis model experiments, 25 male C57BL/6J mice, 6–8 weeks old, weighing 20–25 g, were randomly divided into five groups (n = 5 in each group), and survival was examined. The abdominal cavity was injected with 40 mg kg^−1 LPS to induce sepsis. 30 min later, mice in group 1 were injected subcutaneously with 0.9% NaCl, mice in groups 2–4 were injected subcutaneously with CV122 (20 mg kg^−1), CV122 (30 mg kg^−1), and CV122 (40 mg kg^−1), respectively, and mice in group 5 were injected subcutaneously with Suramin (40 mg kg^−1). The status of the mice was observed and recorded every day.

LPS-induced septic mice [2] = test: Treadmill vitality test of LPS-induced septic mice; format: in vivo, mouse; conditions: LPS-treated mice
Description: To further assess the protective effect of CV122 in LPS‐induced septic mice, we assessed the vitality of the mice with or without CV122 treatment by treadmill (Figure 2I).

LPS-induced septic mice [3] = conditions: mouse, in vivo
[4] = tested on: splenocytes and lymph node cells; test: Flow cytometry of splenocyte apoptosis and T/B cells in LPS-induced septic mice; format: in vivo, mouse; conditions: 24 h after LPS
Procedure: (§1) Each group of mice was euthanized 24 h after LPS injection, spleens were harvested, red blood cells were lysed to detect splenocyte apoptosis, and the ratio of CD3^+CD4^+ T cells, CD3^+CD8^+ T cells, CD3^−CD19^+ B cells in spleen cells and lymph nodes quantified. Antibodies were: FITC‐Annexin V and PI; APC‐CD3, FITC‐CD4, PE‐CD8a, and PE‐CD19. Each group of mice was euthanized 12 h after LPS injection, Lung, kidney, and spleens were harvested, red blood cells were lysed to detect the ratio of macrophages in multiple organs, Antibodies were: FITC anti‐mouse F4/80; APC anti‐mouse CD86. Flow cytometry was used to quantify the adhesion molecules ICAM‐1 and VCAM‐1 on the surface of RAW264.7 cells and HUVECs. CV122 (50 µM) was incubated with the cells for 3 h, LPS (5 µg mL^−1) and TNF‐α (20 ng mL^−1) were used to stimulate the cells for 1 h, and the cells were collected. FITC anti‐mouse CD54 antibody and AF647 anti‐mouse CD106 antibody were incubated for 30 min at room temperature in the dark, PBS was added at 1000 rpm, and the cells were centrifuged for 7 min. A 200‐mesh copper mesh was used to filter the cells into a flow cytometer, and a flow cytometer (BD Biosciences) was used for detection.

HPA [5] = test: HPA expression in TNF-α-stimulated HUVECs (immunofluorescence, western blotting); format: cell-based, human; conditions: CV122 50 µM 3 h, then TNF-α 20 ng mL−1 1 h
Procedure: (§2) Lungs were harvested from LPS‐induced and CLP‐induced sepsis model mice, and frozen sections were prepared. HUVECs and RAW264.7 macrophages were incubated with CV122 for 3 h, and TNF‐α (20 ng mL^−1) and LPS (5 µg mL^−1) were used to stimulate cells for 1 h. Lung tissue, HUVECs, and RAW264.7 macrophages were fixed with 4% paraformaldehyde for 10 min before permeabilization with 0.5% Triton X‐100 for 10 min. The membrane was sealed with 4% skimmed milk powder and incubated at room temperature for 50 min. Primary antibodies were rabbit anti‐heparanase polyclonal antibodies overnight at 4 °C. The diluent of the secondary antibody FITC‐WGA‐lectin was kept at room temperature and protected from light for 1 h. Nuclei were stained with DAPI. After 120 s, images were acquired with a confocal microscope (LSM 800, Zeiss, Germany).
(§3) CV122 (50 µM) was incubated with HUVECs and RAW264.7 cells for 3 h, and LPS (5 µg mL^−1) and TNF‐α (20 ng mL^−1) were incubated for 1 h. Total protein was extracted with RIPA tissue/cell lysate solution. Lung tissues were collected and homogenized in cold RIPA buffer to obtain proteins. The BCA method was used to quantify protein. After full denaturing, proteins were separated by 10% SDS‐PAGE and transferred to PVDF membrane. […] Blots were developed with a chemiluminescent HRP substrate, and the protein bands were detected with a chemiluminescence imager (MiniChemi610).

HPA [6] = test: HPA levels in LPS-stimulated RAW264.7 macrophages (immunofluorescence, western blotting); format: cell-based, mouse; conditions: CV122 50 µM 3 h, then LPS 5 µg mL−1 1 h
Procedure: as §2, §3

RAW264.7 macrophages = test: Cell surface glycocalyx of LPS-stimulated RAW264.7 macrophages (WGA-FITC, atomic force microscopy); format: cell-based, mouse
Procedure: as §2
HUVECs and RAW264.7 cells in the logarithmic growth phase were digested, centrifuged, and then plated in a six‐well plate at a density of 1 × 10[5] cells per well. CV122 was incubated for 3 h, and cells were stimulated with LPS (5 µg mL^−1) and TNF‐α (20 ng mL^−1) for 5 h. Cell‐covered slides were carefully removed and placed on the stage of the atomic force microscope with needle parameters: elastic coefficient 0.4 N M^−1, sensitivity 65.63 nm V^−1, with otherwise the usual atomic force microscope (Bruker, Billerica, MA) parameters used.

ICAM-1 and VCAM-1 = ICAM-1 and VCAM-1 on TNF-α-stimulated HUVECs by flow cytometry; format: cell-based, human; conditions: CV122 50 µM 3 h, TNF-α 20 ng mL−1 1 h
Procedure: as §1

lung tissue glycocalyx = test: Cell surface glycocalyx in lung tissue of LPS-induced septic mice (WGA-FITC, lanthanum nitrate TEM); format: in vivo, mouse
Procedure: as §2
The endothelial glycocalyx was detected by electron microscopy. Mice were dissected and a needle was inserted into the left ventricle of the heart and perfused with lanthanum aldehyde, a solution consisting of 2% glutaraldehyde, 2% sucrose, 0.1 M sodium […] buffer (pH 7.3), and 2% lanthanum nitrate. Lanthanum was a trivalent cation that binds polysaccharide‐protein complexes with negatively charged glycoprotein parts.^[ [46] ^] The organs were cut into 1 mm^3 pieces and then the samples were fixed in lanthanide aldehyde fixative. […]

With `COC1OC(COS(=O)(=O)O)C(OC2OC(C(=O)O)C(OC3OC(COS(=O)(=O)O)C(OC4OC(C(=O)O)C(OC5OC(COS(=O)(=O)O)C(O)C(O)C5NS(=O)(=O)O)C(OS(=O)(=O)O)C4O)C(OS(=O)(=O)O)C3NS(=O)(=O)O)C(O)C2OS(=O)(=O)O)C(O)C1NS(=O)(=O)O` (centres unmarked) [CV122] the survival rate (LPS-induced septic mice [1]; 20 mg kg−1 s.c. 30 min after LPS 40 mg kg−1 i.p.) was 60%, the survival rate (LPS-induced septic mice [1]; 40 mg kg−1 s.c. 30 min after LPS 40 mg kg−1 i.p., 80 h or longer observation) was 100% and the “electric shocks needed in the first 100 m” value (LPS-induced septic mice [2]) was “reduced the electric shocks needed in the first 100 m”. For the same compound, the “running distance and time to exhaustion” value (LPS-induced septic mice [2]) was “significantly increased the running distance and extended the time to exhaustion”, the “total electric shocks until exhaustion” value (LPS-induced septic mice [2]) was “obviously increased the total electric shocks until exhaustion” and the “AST, ALT, BUN in serum and MPO in lung tissue” value (LPS-induced septic mice [3]) was “returned to normal upon CV122 treatment, which was more effective than Suramin”. For the same compound, the “kidney damage (H&E)” value (LPS-induced septic mice [3]) was “resolved by CV122”, the “liver damage (H&E)” value (LPS-induced septic mice [3]) was “significantly improved by CV122” and the “lung inflammation by micro-CT imaging” value (LPS-induced septic mice [3]) was “almost completely inhibit this progress”. The “lung pathological damage (H&E)” value (LPS-induced septic mice [3]) was “significantly improved by CV122 administration”, the “lung weight/body weight ratio” value (LPS-induced septic mice [3]) was “significantly decreased” and the “lung wet–dry weight ratio” value (LPS-induced septic mice [3]) was “extremely significantly decreased”. For the same compound, the “spleen pathological changes (H&E)” value (LPS-induced septic mice [3]) was “no pathological changes were observed in spleen tissue”, the “CD3+CD4+ T cells and CD3+CD8+ T cells in spleen” value [4] was “recovered by CV122 to close to control levels” and the “CD3−CD19+ B cells in spleen and inguinal lymph nodes” value [4] was “recovered upon treatment with CV122”. For the same compound, the “splenocyte apoptosis (FITC-Annexin V and PI)” value [4] was “significantly reduced apoptosis”, the “HPA expression in HUVECs” value (HPA [5]) was “significantly inhibited HPA expression in HUVECs” and the “HPA levels in macrophages” value (HPA [6]) was “significantly inhibited HPA levels following LPS stimulation of macrophages”. The “glycocalyx by WGA-FITC fluorescence” value (RAW264.7 macrophages) was “significantly protected the glycocalyx of macrophages”, the “glycocalyx structure by atomic force microscopy” value (RAW264.7 macrophages) was “protected against disruption of the glycocalyx structure” and the “ICAM-1 and VCAM-1 expression” value (ICAM-1 and VCAM-1) was “reversed after CV122 treatment”. The “cell surface glycocalyx in lung tissue by WGA-FITC” value (lung tissue glycocalyx) was “integrity of the glycocalyx was rescued” and the “lanthanum nitrate staining of lung vascular endothelial glycocalyx (TEM)” value (lung tissue glycocalyx) was “significantly restored lanthanum nitrate staining”.
